The test system of data set [1] is Cladosporium cladosporioides. Description: Antifungal activity against Cladosporium cladosporioides assessed as inhibition of spore germination. It is filed as functional, organism-based.
A further data set concerns Artemia. As to the kind of experiment: Toxicity to brine shrimp. It is filed as organism-based. The note with it: in vivo.

What is called LC50 is the concentration lethal to half of the exposed cells or organisms. As to `CC[C@H](O)C[C@@]12[C@@H]3C[C@H]4[C@H]5[C@H](C)/C(=C6/OC(=O)C(C)=C6OC)O[C@]5(O3)[C@H]1CCN42` [2'-HYDROXYSTEMOFOLINE], in data set [1], the EC50 was greater than 219 ppm. Also, the LC50 with Artemia is greater than 33 ppm.

As to `CCCC[C@@]12C3CCN1[C@H]1C[C@H]2O[C@@]32O/C(=C3\OC(=O)C(C)=C3OC)[C@@H](C)[C@H]12` [STEMOFOLINE], in data set [1], the EC50 is greater than 219 ppm. For the same molecule, in the data set with Artemia, the LC50 is reported as greater than 33 ppm.

(Values after ChEMBL document CHEMBL1148929, “Phytochemical studies on Stemona burkillii prain: two new dihydrostemofoline alkaloids” (J Nat Prod, 2004).)
